This passage reports inhibition results from ChEMBL document CHEMBL3132769, “Fragment growing to retain or alter the selectivity of anchored kinase hinge-binding fragments” (Medchemcomm, 2014).

In assay [1] the target is Ribosomal protein S6 kinase alpha-3 (Homo sapiens) (UniProt P51812). In words: Inhibition of human full length RSK2 expressed in baculovirus assessed as substrate phosphorylation using fluorescence-labelled peptides as substrate at 0.1 uM after 90 mins by microfluidic peptide phosphorylation assay.
Ribosomal protein S6 kinase alpha-3 (Homo sapiens), sequence (P51812 whole entry): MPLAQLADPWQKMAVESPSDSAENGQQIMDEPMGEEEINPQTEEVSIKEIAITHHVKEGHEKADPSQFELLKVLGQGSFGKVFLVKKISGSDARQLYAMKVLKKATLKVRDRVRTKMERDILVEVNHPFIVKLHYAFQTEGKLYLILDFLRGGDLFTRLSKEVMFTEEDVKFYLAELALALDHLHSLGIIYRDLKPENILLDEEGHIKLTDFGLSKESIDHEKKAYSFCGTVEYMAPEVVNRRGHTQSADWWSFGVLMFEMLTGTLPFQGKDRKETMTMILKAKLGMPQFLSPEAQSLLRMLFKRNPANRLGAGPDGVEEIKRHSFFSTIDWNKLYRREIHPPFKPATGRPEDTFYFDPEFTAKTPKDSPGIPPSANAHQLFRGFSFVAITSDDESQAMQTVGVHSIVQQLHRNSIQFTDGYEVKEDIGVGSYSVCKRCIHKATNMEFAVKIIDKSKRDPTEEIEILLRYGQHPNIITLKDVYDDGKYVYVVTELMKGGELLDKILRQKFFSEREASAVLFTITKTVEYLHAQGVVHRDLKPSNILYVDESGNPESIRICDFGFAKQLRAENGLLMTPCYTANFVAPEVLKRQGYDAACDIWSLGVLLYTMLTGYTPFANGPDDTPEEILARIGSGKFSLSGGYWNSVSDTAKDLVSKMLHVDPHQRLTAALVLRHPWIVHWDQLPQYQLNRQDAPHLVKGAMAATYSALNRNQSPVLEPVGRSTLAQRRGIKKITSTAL
Assay [2] concerns T1, Receptor-type tyrosine-protein kinase FLT3 (Homo sapiens), P36888 [D835Y].
T1 sequence (whole entry): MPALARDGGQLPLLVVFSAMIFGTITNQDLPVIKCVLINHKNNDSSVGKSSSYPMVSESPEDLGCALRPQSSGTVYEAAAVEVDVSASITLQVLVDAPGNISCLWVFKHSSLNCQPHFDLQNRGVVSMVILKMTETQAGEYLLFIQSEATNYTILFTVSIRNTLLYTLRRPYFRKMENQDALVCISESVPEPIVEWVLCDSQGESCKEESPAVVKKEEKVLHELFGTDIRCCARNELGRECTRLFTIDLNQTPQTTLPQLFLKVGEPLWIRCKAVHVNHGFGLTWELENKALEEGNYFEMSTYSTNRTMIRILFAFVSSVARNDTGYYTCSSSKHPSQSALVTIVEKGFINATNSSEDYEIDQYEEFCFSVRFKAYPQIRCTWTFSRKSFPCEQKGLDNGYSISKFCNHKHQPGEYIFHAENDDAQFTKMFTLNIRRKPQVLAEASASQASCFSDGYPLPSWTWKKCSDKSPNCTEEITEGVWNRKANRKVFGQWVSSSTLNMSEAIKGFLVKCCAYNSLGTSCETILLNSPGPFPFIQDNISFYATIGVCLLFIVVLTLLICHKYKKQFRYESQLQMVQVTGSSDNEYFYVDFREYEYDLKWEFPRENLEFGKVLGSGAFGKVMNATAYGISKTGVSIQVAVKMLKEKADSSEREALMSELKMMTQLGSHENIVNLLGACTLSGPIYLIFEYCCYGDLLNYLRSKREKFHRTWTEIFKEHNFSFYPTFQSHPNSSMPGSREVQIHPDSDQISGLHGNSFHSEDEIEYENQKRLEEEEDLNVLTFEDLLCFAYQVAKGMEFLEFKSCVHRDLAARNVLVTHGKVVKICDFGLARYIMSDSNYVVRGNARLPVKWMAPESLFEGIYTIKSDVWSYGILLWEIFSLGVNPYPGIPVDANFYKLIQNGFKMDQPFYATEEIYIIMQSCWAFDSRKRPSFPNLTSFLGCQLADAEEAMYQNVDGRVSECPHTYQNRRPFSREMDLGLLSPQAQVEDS
The assay is described as follows: Inhibition of human FLT3 D835Y mutant catalytic domain expressed in baculovirus assessed as substrate phosphorylation using fluorescence-labelled peptides as substrate at 0.1 uM after 90 mins by microfluidic peptide phosphorylation assay.

The target of assay [3] is T2, Serine/threonine-protein kinase Sgk3 (Homo sapiens) (UniProt Q96BR1).
T2 sequence (whole entry): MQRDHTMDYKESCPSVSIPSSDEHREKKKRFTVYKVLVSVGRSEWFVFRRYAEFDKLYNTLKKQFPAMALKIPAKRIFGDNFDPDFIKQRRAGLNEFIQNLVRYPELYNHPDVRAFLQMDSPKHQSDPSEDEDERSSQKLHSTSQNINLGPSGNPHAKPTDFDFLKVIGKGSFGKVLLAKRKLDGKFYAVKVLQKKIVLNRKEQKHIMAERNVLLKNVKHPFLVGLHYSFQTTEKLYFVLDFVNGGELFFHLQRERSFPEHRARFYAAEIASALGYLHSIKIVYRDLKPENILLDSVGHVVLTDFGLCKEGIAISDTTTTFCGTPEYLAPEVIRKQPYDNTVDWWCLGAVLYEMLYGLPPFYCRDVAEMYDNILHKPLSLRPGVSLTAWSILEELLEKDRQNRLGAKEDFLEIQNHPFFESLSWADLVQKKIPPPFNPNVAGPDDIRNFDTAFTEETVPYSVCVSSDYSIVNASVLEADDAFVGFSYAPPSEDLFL
To be noted: 0.1 uM.
Description: Inhibition of human full length SGK3 expressed in baculovirus assessed as substrate phosphorylation using fluorescence-labelled peptides as substrate at 0.1 uM after 90 mins by microfluidic peptide phosphorylation assay

In assay [4] the target is Ribosomal protein S6 kinase alpha-4 (Homo sapiens) (UniProt O75676). In words: Inhibition of human full length MSK2 expressed in baculovirus assessed as substrate phosphorylation using fluorescence-labelled peptides as substrate at 0.2 uM after 90 mins by microfluidic peptide phosphorylation assay.
Ribosomal protein S6 kinase alpha-4 (Homo sapiens), sequence (O75676 whole entry, looked up): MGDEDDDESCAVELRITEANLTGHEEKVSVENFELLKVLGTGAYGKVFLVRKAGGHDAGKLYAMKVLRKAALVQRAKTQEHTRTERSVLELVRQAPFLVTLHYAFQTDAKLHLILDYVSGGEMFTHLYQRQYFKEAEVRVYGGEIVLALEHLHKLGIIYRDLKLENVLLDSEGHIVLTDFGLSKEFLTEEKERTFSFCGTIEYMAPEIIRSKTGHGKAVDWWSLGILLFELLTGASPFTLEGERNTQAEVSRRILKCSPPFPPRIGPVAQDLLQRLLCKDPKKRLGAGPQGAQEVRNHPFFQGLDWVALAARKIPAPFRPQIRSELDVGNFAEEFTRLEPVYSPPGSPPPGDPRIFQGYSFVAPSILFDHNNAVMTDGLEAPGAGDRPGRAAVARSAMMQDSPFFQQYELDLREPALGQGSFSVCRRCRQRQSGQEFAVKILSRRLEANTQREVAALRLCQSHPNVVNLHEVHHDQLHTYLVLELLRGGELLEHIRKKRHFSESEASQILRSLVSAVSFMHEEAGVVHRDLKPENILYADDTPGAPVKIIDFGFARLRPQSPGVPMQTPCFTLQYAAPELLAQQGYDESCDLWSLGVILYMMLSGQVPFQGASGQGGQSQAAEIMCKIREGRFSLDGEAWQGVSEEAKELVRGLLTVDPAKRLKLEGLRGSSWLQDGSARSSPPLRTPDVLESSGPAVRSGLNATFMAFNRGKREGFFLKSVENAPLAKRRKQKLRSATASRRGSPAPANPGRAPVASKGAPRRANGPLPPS
Assay [5] addresses Ribosomal protein S6 kinase alpha-5 (Homo sapiens) (UniProt O75582). The assay is described as follows: Inhibition of human full length MSK1 expressed in baculovirus assessed as substrate phosphorylation using fluorescence-labelled peptides as substrate at 0.06 uM after 90 mins by microfluidic peptide phosphorylation assay.
The target of assay [6] is T3, Serine/threonine-protein kinase BRSK1 (Homo sapiens) (UniProt Q8TDC3).
T3 sequence (whole entry): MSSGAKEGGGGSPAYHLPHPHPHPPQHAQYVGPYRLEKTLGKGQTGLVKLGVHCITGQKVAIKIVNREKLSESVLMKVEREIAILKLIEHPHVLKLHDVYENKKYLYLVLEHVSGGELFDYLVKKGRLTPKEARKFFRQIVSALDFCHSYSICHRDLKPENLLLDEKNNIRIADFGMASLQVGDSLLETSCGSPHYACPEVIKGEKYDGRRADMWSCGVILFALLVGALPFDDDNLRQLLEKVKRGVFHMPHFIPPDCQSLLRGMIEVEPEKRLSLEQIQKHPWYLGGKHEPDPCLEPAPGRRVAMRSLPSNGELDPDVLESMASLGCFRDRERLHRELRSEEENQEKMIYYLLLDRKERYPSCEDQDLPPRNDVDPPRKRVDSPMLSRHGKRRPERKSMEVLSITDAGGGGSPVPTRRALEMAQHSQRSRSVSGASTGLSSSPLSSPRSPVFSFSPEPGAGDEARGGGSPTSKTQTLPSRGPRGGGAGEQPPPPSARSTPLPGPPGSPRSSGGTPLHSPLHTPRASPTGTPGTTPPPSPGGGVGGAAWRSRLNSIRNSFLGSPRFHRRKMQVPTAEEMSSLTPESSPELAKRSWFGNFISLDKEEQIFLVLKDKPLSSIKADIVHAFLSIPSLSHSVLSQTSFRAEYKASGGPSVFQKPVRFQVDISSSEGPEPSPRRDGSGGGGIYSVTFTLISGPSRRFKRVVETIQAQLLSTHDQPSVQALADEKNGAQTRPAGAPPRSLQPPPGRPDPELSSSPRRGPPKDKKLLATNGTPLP
In words: Inhibition of human full length BRSK1 expressed in baculovirus assessed as substrate phosphorylation using fluorescence-labelled peptides as substrate at 8 uM after 90 mins by microfluidic peptide phosphorylation assay.

For assay [7], the target named is Serine/threonine-protein kinase pim-1 (Homo sapiens) (UniProt P11309). The assay is described as follows: Inhibition of human full length PIM1 expressed in baculovirus assessed as substrate phosphorylation using fluorescence-labelled peptides as substrate at 70 uM after 90 mins by microfluidic peptide phosphorylation assay.
Serine/threonine-protein kinase pim-1 (Homo sapiens), sequence (P11309 whole entry, looked up): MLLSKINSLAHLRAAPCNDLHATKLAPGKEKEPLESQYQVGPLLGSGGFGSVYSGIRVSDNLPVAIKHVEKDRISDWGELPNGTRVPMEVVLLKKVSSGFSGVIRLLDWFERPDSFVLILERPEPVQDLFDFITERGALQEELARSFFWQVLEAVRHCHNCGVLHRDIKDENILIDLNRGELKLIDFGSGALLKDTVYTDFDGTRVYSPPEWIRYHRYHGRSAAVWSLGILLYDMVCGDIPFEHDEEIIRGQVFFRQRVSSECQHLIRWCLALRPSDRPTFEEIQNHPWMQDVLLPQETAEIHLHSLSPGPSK
Assay [8] addresses Ribosomal protein S6 kinase alpha-4 (Homo sapiens) (UniProt O75676). The assay is described as follows: Inhibition of human full length MSK2 expressed in baculovirus assessed as substrate phosphorylation using fluorescence-labelled peptides as substrate at 70 uM after 90 mins by microfluidic peptide phosphorylation assay.
Assay [9] concerns the target MAP/microtubule affinity-regulating kinase 3 (Homo sapiens) (UniProt P27448). The assay is described as follows: Inhibition of human full length c-TAK1 expressed in Escherichia coli cell assessed as substrate phosphorylation using fluorescence-labelled peptides as substrate at […] after 90 mins by microfluidic peptide phosphorylation assay.

The inhibition is the drop in the measured response relative to a control, in per cent.

Ribosomal protein S6 kinase alpha-5 (Homo sapiens), sequence (O75582 whole entry, looked up): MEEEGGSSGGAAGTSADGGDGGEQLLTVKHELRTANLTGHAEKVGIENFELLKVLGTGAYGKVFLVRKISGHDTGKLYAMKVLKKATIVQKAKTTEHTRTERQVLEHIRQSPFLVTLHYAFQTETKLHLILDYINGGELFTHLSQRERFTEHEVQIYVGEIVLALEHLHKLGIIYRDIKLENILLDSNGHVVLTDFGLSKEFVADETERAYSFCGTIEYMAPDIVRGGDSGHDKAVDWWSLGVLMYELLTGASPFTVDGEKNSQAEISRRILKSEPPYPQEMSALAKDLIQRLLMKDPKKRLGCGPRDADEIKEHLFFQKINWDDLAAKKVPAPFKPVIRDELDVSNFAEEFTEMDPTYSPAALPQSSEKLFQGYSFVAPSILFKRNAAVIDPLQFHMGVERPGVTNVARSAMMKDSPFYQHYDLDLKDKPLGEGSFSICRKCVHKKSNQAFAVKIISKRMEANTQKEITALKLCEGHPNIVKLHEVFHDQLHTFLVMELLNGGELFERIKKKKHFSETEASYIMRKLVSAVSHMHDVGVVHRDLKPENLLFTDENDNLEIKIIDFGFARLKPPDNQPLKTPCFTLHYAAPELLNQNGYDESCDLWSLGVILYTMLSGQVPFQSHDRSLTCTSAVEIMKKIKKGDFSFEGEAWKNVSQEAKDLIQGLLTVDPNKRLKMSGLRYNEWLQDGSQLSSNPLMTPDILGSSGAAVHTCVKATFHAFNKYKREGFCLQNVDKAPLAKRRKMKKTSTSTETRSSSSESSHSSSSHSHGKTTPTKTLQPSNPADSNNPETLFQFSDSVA
MAP/microtubule affinity-regulating kinase 3 (Homo sapiens), sequence (P27448 whole entry, looked up): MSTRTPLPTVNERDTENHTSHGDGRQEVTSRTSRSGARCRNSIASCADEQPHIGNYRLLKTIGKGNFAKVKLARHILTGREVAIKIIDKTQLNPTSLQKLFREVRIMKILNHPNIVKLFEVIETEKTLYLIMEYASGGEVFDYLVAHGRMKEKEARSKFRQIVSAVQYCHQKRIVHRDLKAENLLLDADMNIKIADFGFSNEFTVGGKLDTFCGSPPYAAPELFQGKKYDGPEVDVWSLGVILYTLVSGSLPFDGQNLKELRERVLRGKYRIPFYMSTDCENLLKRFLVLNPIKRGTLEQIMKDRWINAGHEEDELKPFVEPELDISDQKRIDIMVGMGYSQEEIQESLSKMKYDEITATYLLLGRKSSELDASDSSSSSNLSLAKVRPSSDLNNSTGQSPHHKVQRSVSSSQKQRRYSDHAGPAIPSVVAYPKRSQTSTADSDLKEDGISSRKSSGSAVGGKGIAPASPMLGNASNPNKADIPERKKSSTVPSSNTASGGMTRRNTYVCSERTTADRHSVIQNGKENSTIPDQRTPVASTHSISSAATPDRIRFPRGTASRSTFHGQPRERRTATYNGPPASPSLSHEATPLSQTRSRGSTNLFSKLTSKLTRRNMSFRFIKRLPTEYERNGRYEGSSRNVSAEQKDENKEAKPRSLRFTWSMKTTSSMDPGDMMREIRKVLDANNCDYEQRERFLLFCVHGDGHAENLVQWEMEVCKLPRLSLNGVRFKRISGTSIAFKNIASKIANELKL

On to `C[C@H](CN(C)C)Oc1nc(Nc2cc3cccc(Cl)c3cn2)cnc1C#N`, for which the figures for the inhibition in assay [1], in assay [2] and in assay [3] were 59.5%, 27% and 0%, respectively.

In the case of `Clc1ccc(C2(c3ccc(-c4ncnc5[nH]cnc45)cc3)CCNCC2)cc1`, in [4], the inhibition stood at 82.5%.

In the case of `NC1(Cc2ccc(Cl)cc2)CCN(c2ncnc3[nH]ccc23)CC1`, the inhibition in assay [5] was found to be 5.5%.

As for `NCC1CCN(c2ncnc3[nH]ccc23)CC1`, the inhibition in [6] was found to be 56.5%.

Take `CNCc1ccc(-c2ncnc3[nH]cnc23)cc1`: the inhibition in assay [7] was 26%; in assay [8], 68%.

As for `COC(=O)c1cnc(Nc2cnc(C#N)cn2)cc1NCC1CCNCC1`, the inhibition in assay [9] came out at 0.5%.
